Laboratory results: patent US10168342B2, “Lipid probes and uses thereof” (THE SCRIPPS RESEARCH INSTITUTE, priority 2015, dated 2019)

Columns and labels:
[1] = test system: membrane and soluble proteins of HEK293T cells; assay: Gel-based profiling of lipid probe labeling in HEK293T cells; type: cell-based, human; conditions: probe 20 μM, 30 min, UV
Procedure: For gel-based analysis, after sonicating the membrane pellets in cold DPBS, protein concentrations of each fraction were determined using the BCA protein assay (Bio-Rad) and a microplate reader (Tecan, Infinite F500).
Proteomes were diluted to 1.0 mg/mL (total protein concentration) and 50 μL of each proteome was transferred to separate wells in a 96-well plate.
In some instances, within the arachidonoyl subset of probes, fatty acid- and fatty acid amide-based probes (AA-DA and AEA-DA, respectively) were synthesized and their potential were evaluated to bind and covalently modify (under UV-light exposure) proteins in human cells by gel-based profiling. For example, HEK293T cells were treated with probe (AA-DA or AEA-DA; 20 μM, 30 min), irradiated with UV light (10 min, 4° C.), lysed and the cell proteomes fractionated into membrane and soluble components by centrifugation prior to conjugation to a fluorescent reporter tag (Rh—N3) using CuAAC (FIG. 4A). […] In some instances, this was a consequence of rapid sequestration of this probe into membranes through its metabolic incorporation into phospho/neutral-lipids or into lipidated proteins. […] In some instances, the labeling profile of the AEA-DA probe reflected a limited capacity of the cell to metabolize this amidated probe, which undergoes enzyme-mediated hydrolysis prior to incorporation into other lipids or proteins.

[2] = molecular target: T1, lipid-binding proteins in Neuro2a cells (Mus musculus, UniProt Q924D0); assay: SILAC MS mapping of lipid probe targets (probe-versus-No UV, probe-versus-probe) in Neuro2a cells; type: cell-based; conditions: protein Rtn4ip1, AEA-DA probe, No UV control
T1 construct: endogenous in cells; host or cells: Neuro2a
T1 sequence (Q924D0 41-396): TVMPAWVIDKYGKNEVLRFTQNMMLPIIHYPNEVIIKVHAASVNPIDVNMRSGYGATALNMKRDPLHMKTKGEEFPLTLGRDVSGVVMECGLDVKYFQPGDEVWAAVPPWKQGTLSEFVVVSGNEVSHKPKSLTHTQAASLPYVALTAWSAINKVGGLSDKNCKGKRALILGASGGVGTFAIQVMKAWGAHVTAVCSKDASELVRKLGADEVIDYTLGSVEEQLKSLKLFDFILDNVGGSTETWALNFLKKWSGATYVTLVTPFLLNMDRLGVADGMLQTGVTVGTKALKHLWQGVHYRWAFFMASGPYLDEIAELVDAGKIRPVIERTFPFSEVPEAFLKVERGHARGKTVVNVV

[3] = test system: PGF2α-EA formation in PMA-stimulated A549 cells; assay: Oxidative metabolism of AEA in A549 cells (prostamide formation); type: cell-based, human; conditions: MJN228, KML110 5 and 25 μM, others 25 μM, AEA 20 μM
Procedure: The media from the PMA-stimulated cells was removed and cells were washed with DPBS (2×3 mL) before adding freshly prepared media solutions containing vehicle or compound (2 mL/plate). After incubating for 30 min at 37° C., a solution of BHT-stabilized AEA (60 μM AEA; 60 μM BHT) in the same media was added to the cells (1.0 mL/plate) and incubated for 1 h. The media from the cells was then transferred to glass vials containing MS internal standards [PGE2-EA-d4 (25 pmol)], centrifuged (1,500×g, 5 min) to remove detached cells and then loaded onto pre-equilibrated reversed phase SPE cartridges (Phenomenex, Strata-X 33 μm, 60 mg/3 mL). After washing cartridges with 5% MeOH/H2O (3 mL), prostamides were eluted with MeOH (1.0 mL) and the eluent was concentrated under a stream of N2. Concentrated samples were stored at −80° C. until the day of analysis when they were reconstituted in Mobile Phase A [100 μL, 30% CH3CN in H2O (0.1% AcOH, 5.0 mM NH4OAc)].
Media extracts were analyzed by LC/MS/MS with LC separation performed on a Kinetex reversed phase C18 column (50×4.6 mm, 2.6 μm particle size, 100Å). Mobile phase A was composed of 30% (v/v) CH3CN in H2O and Mobile phase B was composed of 50% (v/v) CH3CN in i-PrOH. Both mobile phases also contained 0.1% AcOH and NH4OAc (5 mM) to facilitate ionization and LC separation. […]
MS analysis of prostamides was performed on an Agilent 6460 Triple Quadrupole LC/MS System with operating conditions as follows: gas temperature (300° C.); gas flow (9 L·min^−1); nebulizer (45 psi); sheath gas temperature (300° C.); sheath gas flow (12 L·min^−1); positive and negative capillary voltage (3.5 kV). Analysis was achieved using multiple reaction monitoring with precursor to product ion transitions, optimized collision energies (CE) as listed below and prostamide quantification was achieved by normalized of analyte peaks relative to a deuterated prostamide internal standard (PGE2-EA-d4) to account for differences in extraction efficiency. […]

[4] = molecular target: A-DA lipid probe targets in A549 cells (Homo sapiens, UniProt Q5HYK3); assay: In situ competitive SILAC profiling with A-DA probe in (PMA-stimulated) A549 cells; conditions: A549 cells, A-DA probe
Sequence of A-DA lipid probe targets in A549 cells (Homo sapiens, UniProt Q5HYK3) (Q5HYK3 43-327): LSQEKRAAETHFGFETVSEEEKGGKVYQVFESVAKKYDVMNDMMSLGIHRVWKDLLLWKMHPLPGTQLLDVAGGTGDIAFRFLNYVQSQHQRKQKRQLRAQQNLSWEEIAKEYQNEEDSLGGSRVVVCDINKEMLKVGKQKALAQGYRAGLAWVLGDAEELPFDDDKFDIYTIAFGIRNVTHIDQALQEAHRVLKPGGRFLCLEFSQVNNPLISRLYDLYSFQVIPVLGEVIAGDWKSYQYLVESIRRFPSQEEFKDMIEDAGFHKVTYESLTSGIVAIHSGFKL

[5] = molecular target: T2, A-DA lipid probe targets in A549 cells (Homo sapiens, UniProt Q9UH99); assay: as above; conditions: protein SUN2 (Q9UH99), A549 cells
T2 sequence (Q9UH99 1-717): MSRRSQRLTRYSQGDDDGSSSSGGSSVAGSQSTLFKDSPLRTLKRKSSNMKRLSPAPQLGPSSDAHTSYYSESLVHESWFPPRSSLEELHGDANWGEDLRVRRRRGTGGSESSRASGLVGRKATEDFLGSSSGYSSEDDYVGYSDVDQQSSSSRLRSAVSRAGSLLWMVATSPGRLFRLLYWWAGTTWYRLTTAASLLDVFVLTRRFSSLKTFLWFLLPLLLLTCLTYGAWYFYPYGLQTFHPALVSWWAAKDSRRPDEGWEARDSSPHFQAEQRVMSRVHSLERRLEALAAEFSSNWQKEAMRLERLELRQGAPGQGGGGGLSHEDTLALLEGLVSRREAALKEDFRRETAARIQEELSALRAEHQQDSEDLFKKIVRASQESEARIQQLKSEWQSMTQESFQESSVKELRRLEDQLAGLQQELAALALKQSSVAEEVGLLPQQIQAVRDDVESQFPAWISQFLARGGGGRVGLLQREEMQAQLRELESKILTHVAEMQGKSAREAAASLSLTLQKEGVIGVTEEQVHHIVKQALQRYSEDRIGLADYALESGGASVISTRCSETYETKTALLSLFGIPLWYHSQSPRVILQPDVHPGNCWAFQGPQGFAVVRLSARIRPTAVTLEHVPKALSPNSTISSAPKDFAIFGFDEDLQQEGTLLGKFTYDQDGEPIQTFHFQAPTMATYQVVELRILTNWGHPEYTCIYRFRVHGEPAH

[6] = molecular target: A-DA lipid probe targets in A549 cells (Homo sapiens, UniProt P48449); assay: as above; conditions: A549 cells, A-DA 5 μM, drug 5 μM; only two off-targets (TMEM97 and EBP)
Sequence of A-DA lipid probe targets in A549 cells (Homo sapiens, UniProt P48449) (P48449 whole entry): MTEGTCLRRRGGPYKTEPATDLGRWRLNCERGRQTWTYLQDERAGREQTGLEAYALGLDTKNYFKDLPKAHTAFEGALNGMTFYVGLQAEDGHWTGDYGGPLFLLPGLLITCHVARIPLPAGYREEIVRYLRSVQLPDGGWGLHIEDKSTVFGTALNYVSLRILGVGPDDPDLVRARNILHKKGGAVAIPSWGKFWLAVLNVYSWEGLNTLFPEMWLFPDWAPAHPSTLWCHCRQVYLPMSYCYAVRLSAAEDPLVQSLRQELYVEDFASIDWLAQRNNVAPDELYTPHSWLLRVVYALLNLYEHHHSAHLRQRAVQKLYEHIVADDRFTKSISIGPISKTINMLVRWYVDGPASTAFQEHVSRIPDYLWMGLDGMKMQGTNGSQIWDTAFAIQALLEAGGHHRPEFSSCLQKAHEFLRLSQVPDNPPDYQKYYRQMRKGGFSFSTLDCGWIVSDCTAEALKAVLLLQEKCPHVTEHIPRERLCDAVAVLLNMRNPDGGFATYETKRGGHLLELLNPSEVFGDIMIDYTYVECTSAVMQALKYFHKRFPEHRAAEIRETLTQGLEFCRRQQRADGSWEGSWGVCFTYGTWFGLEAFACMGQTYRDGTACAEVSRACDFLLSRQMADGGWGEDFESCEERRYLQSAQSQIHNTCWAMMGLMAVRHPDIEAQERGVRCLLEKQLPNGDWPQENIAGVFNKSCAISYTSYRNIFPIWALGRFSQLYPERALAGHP

SMILES: C#CCCCC1(CC/C=C\C/C=C\C/C=C\CCCC(=O)NCCO)N=N1 [AEA-DA, (5Z,8Z,11Z)-N-(2-hydroxyethyl)-14-(3-(pent-4-yn-1-yl)-3H-diazirin-3-yl)tetradeca-5,8,11-trienamide]
- protein labeling profile (membrane vs soluble) [1]: substantial labeling of both soluble and membrane proteins
- SILAC ratio, AEA-DA probe versus No UV [2]: 15.1

SMILES: CN1CCN(C(=O)c2c(-c3ccccc3)c3cc([N+](=O)[O-])ccc3n2C)CC1 [KML110, (1-Methyl-5-nitro-3-phenyl-1H-indol-2-yl)(4-methylpiperazin-1-yl)methanone]
- conversion of exogenous AEA to PGF2α-EA [3]: suppress

SMILES: CN1CCN(C(=O)c2[nH]c3ccc([N+](=O)[O-])cc3c2-c2ccccc2)CC1 [MJN228, (4-Methylpiperazin-1-yl)(5-nitro-3-phenyl-1H-indol-2-yl)methanone]
- conversion of exogenous AEA to PGF2α-EA [3]: suppress

SMILES: C=CCN(C)CCCCCCOc1ccc(C(=O)c2ccc(Br)cc2)c(F)c1 [Ro488071]
- SILAC ratio, COQ5 (Q5HYK3) ([4]; competitor 5 μM): 2.0
- SILAC ratio, COQ5 (Q5HYK3) ([4]; competitor 50 μM): 3.4

SMILES: C=CCN(C)CCCCCCOc1ccc(C(=O)c2ccc(Br)cc2)c(F)c1 [Ro 48-8071, reference compound]
- SILAC ratio, A-DA competition ([5]; competitor 5.0 μM): 1.3
- SILAC ratio, A-DA competition ([5]; competitor 50 μM): 1.3
- competition of probe labeling of LSS [6]: fully competed
